# Test results: patent US20050112573A1, “Method of detecting toxic substance” (priority 2001, published 2005)
# Test system: yeast genes (level of expressed mRNA)
# Assay: DNA chip analysis of expressed mRNA of yeast genes after 2 h culture with a toxic chemical substance
# Type: cell-based, Saccharomyces cerevisiae S288C
# Summary of the method: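 S. cerevisiae S288C grown at 25° C in YPD; toxicant added at log phase at growth-inhibitory, non-lethal levels for 2 h, untreated cells as control. Poly(A) mRNA reverse-transcribed with Cy3/Cy5-dUTP, hybridized to whole-genome chip at 65° C >12 h; value is fluorescence ratio versus untreated.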
structure (smiles),measurement,setting,value
"S=C([S-])NCCNC(=S)[S-].[Zn+2] [(11), zinc N,N′-ethylenebis(dithiocarbamate)]",level of expressed mRNA in the presence of chemical substance/in its absence,gene YGR282C,1.5
same,The level of expressed mRNA in the presence of chemical substance/absence: YGR293C,gene YGR293C,0.6
same,The level of expressed mRNA in the presence of chemical substance/absence: YHL006C,gene YHL006C,0.7
same,The level of expressed mRNA in the presence of chemical substance/absence: YHL021C,gene YHL021C,1.4
same,The level of expressed mRNA in the presence of chemical substance/absence: YHL037C,gene YHL037C,1.0
same,level of expressed mRNA in the presence of chemical substance/in its absence,gene YHR037W,1.7
same,The level of expressed mRNA in the presence of chemical substance/absence: YHR083W,gene YHR083W,1.3
same,level of expressed mRNA in the presence of chemical substance/in its absence,gene YHR092C,1.5
same,The level of expressed mRNA in the presence of chemical substance/absence: YHR095W,gene YHR095W,1.3
same,The level of expressed mRNA in the presence of chemical substance/absence: YHR105W,gene YHR105W,0.7
same,The level of expressed mRNA in the presence of chemical substance/absence: YHR134W,gene YHR134W,0.7
same,level of expressed mRNA in the presence of chemical substance/in its absence,gene YHR137W,0.6
same,The level of expressed mRNA in the presence of chemical substance/absence: YHR180W,gene YHR180W,1.4
same,The level of expressed mRNA in the presence of chemical substance/absence: YHR181W,gene YHR181W,1.3
same,level of expressed mRNA in the presence of chemical substance/in its absence,gene YHR190W,1.3
same,level of expressed mRNA in the presence of chemical substance/in its absence,gene YIL033C,1.8
same,The level of expressed mRNA in the presence of chemical substance/absence: YIL108W,gene YIL108W,1.2
same,The level of expressed mRNA in the presence of chemical substance/absence: YIL127C,gene YIL127C,0.9
same,level of expressed mRNA in the presence of chemical substance/in its absence,gene YIL154C,1.2
same,The level of expressed mRNA in the presence of chemical substance/absence: YIL165C,gene YIL165C,1.1
same,level of expressed mRNA in the presence of chemical substance/in its absence,gene YIL167W,1.9
same,level of expressed mRNA in the presence of chemical substance/in its absence,gene YIR035C,1.3
same,The level of expressed mRNA in the presence of chemical substance/absence: YJL017W,gene YJL017W,1.4
same,The level of expressed mRNA in the presence of chemical substance/absence: YJL032W,gene YJL032W,1.8
same,The level of expressed mRNA in the presence of chemical substance/absence: YJL037W,gene YJL037W,1.6
same,The level of expressed mRNA in the presence of chemical substance/absence: YJL049W,gene YJL049W,1.5
same,level of expressed mRNA in the presence of chemical substance/in its absence,gene YJL088W,0.9
same,The level of expressed mRNA in the presence of chemical substance/absence: YJL097W,gene YJL097W,1.5
same,level of expressed mRNA in the presence of chemical substance/in its absence,gene YJL132W,1.4
same,level of expressed mRNA in the presence of chemical substance/in its absence,gene YJL196C,2.3
same,The level of expressed mRNA in the presence of chemical substance/absence: YJR030C,gene YJR030C,0.8
same,The level of expressed mRNA in the presence of chemical substance/absence: YJR044C,gene YJR044C,1.9
same,level of expressed mRNA in the presence of chemical substance/in its absence,gene YJR142W,0.9
same,level of expressed mRNA in the presence of chemical substance/in its absence,gene YJR148W,0.6
same,level of expressed mRNA in the presence of chemical substance/in its absence,gene YJR159W,2.2
same,The level of expressed mRNA in the presence of chemical substance/absence: YKL051W,gene YKL051W,1.8
same,The level of expressed mRNA in the presence of chemical substance/absence: YKL059C,gene YKL059C,0.9
same,level of expressed mRNA in the presence of chemical substance/in its absence,gene YKL067W,1.8
same,The level of expressed mRNA in the presence of chemical substance/absence: YKL090W,gene YKL090W,2.3
same,The level of expressed mRNA in the presence of chemical substance/absence: YKL094W,gene YKL094W,1.3
same,The level of expressed mRNA in the presence of chemical substance/absence: YKL097C,gene YKL097C,0.6
same,The level of expressed mRNA in the presence of chemical substance/absence: YKL100C,gene YKL100C,1.6
same,level of expressed mRNA in the presence of chemical substance/in its absence,gene YKR039W,1.9
same,The level of expressed mRNA in the presence of chemical substance/absence: YKR040C,gene YKR040C,0.8
same,The level of expressed mRNA in the presence of chemical substance/absence: YLR097C,gene YLR097C,1.7
same,level of expressed mRNA in the presence of chemical substance/in its absence,gene YLR142W,3.8
same,level of expressed mRNA in the presence of chemical substance/in its absence,gene YLR180W,1.7
same,The level of expressed mRNA in the presence of chemical substance/absence: YLR226W,gene YLR226W,0.8
same,level of expressed mRNA in the presence of chemical substance/in its absence,gene YLR273C,1.4
same,level of expressed mRNA in the presence of chemical substance/in its absence,gene YLR300W,1.0
same,level of expressed mRNA in the presence of chemical substance/in its absence,gene YLR307W,0.8
same,The level of expressed mRNA in the presence of chemical substance/absence: YLR338W,gene YLR338W,0.9
same,The level of expressed mRNA in the presence of chemical substance/absence: YLR339C,gene YLR339C,1.6
same,The level of expressed mRNA in the presence of chemical substance/absence: YLR392C,gene YLR392C,1.4
same,The level of expressed mRNA in the presence of chemical substance/absence: YLR415C,gene YLR415C,0.8
same,The level of expressed mRNA in the presence of chemical substance/absence: YLR427W,gene YLR427W,0.8
same,The level of expressed mRNA in the presence of chemical substance/absence: YML013W,gene YML013W,1.1
same,The level of expressed mRNA in the presence of chemical substance/absence: YML029W,gene YML029W,1.2
same,The level of expressed mRNA in the presence of chemical substance/absence: YML041C,gene YML041C,0.9
same,The level of expressed mRNA in the presence of chemical substance/absence: YML079W,gene YML079W,1.2
same,level of expressed mRNA in the presence of chemical substance/in its absence,gene YML110C,1.7
same,The level of expressed mRNA in the presence of chemical substance/absence: YML118W,gene YML118W,1.3
same,The level of expressed mRNA in the presence of chemical substance/absence: YMR068W,gene YMR068W,1.1
same,The level of expressed mRNA in the presence of chemical substance/absence: YMR071C,gene YMR071C,1.2
same,level of expressed mRNA in the presence of chemical substance/in its absence,gene YMR105C,3.0
same,The level of expressed mRNA in the presence of chemical substance/absence: YMR114C,gene YMR114C,1.0
same,The level of expressed mRNA in the presence of chemical substance/absence: YMR115W,gene YMR115W,1.1
same,The level of expressed mRNA in the presence of chemical substance/absence: YMR160W,gene YMR160W,1.0
same,level of expressed mRNA in the presence of chemical substance/in its absence,gene YMR189W,8.2
same,The level of expressed mRNA in the presence of chemical substance/absence: YMR258C,gene YMR258C,1.4
same,level of expressed mRNA in the presence of chemical substance/in its absence,gene YMR271C,1.7
same,level of expressed mRNA in the presence of chemical substance/in its absence,gene YMR272C,0.8
same,level of expressed mRNA in the presence of chemical substance/in its absence,gene YMR296C,0.8
same,level of expressed mRNA in the presence of chemical substance/in its absence,gene YNL012W,1.6
same,The level of expressed mRNA in the presence of chemical substance/absence: YNL026W,gene YNL026W,1.1
same,level of expressed mRNA in the presence of chemical substance/in its absence,gene YNL037C,1.4
same,level of expressed mRNA in the presence of chemical substance/in its absence,gene YNL045W,2.1
same,The level of expressed mRNA in the presence of chemical substance/absence: YNL058C,gene YNL058C,1.0
same,The level of expressed mRNA in the presence of chemical substance/absence: YNL063W,gene YNL063W,1.1
same,level of expressed mRNA in the presence of chemical substance/in its absence,gene YNL104C,2.1
same,level of expressed mRNA in the presence of chemical substance/in its absence,gene YNL106C,0.9
same,level of expressed mRNA in the presence of chemical substance/in its absence,gene YNL130C,1.5
same,level of expressed mRNA in the presence of chemical substance/in its absence,gene YNL169C,0.8
same,The level of expressed mRNA in the presence of chemical substance/absence: YNL176C,gene YNL176C,1.2
same,The level of expressed mRNA in the presence of chemical substance/absence: YNL181W,gene YNL181W,1.2
same,The level of expressed mRNA in the presence of chemical substance/absence: YNL191W,gene YNL191W,1.0
same,The level of expressed mRNA in the presence of chemical substance/absence: YNL194C,gene YNL194C,17.1
same,The level of expressed mRNA in the presence of chemical substance/absence: YNL200C,gene YNL200C,3.1
same,The level of expressed mRNA in the presence of chemical substance/absence: YNL212W,gene YNL212W,1.3
same,level of expressed mRNA in the presence of chemical substance/in its absence,gene YNL231C,1.3
same,The level of expressed mRNA in the presence of chemical substance/absence: YNL253W,gene YNL253W,0.8
same,The level of expressed mRNA in the presence of chemical substance/absence: YNL265C,gene YNL265C,0.9
same,The level of expressed mRNA in the presence of chemical substance/absence: YNL276C,gene YNL276C,0.7
same,level of expressed mRNA in the presence of chemical substance/in its absence,gene YNL322C,0.6
same,level of expressed mRNA in the presence of chemical substance/in its absence,gene YNR002C,1.6
same,level of expressed mRNA in the presence of chemical substance/in its absence,gene YNR019W,0.7
same,level of expressed mRNA in the presence of chemical substance/in its absence,gene YNR033W,0.4
same,The level of expressed mRNA in the presence of chemical substance/absence: YNR051C,gene YNR051C,1.5
same,level of expressed mRNA in the presence of chemical substance/in its absence,gene YNR059W,1.0
same,The level of expressed mRNA in the presence of chemical substance/absence: YOL026C,gene YOL026C,1.2
same,The level of expressed mRNA in the presence of chemical substance/absence: YOL030W,gene YOL030W,1.3
same,level of expressed mRNA in the presence of chemical substance/in its absence,gene YOL058W,2.3
same,level of expressed mRNA in the presence of chemical substance/in its absence,gene YOL126C,1.8
same,level of expressed mRNA in the presence of chemical substance/in its absence,gene YOL143C,2.0
same,level of expressed mRNA in the presence of chemical substance/in its absence,gene YOL153C,2.4
same,level of expressed mRNA in the presence of chemical substance/in its absence,gene YOL157C,1.2
same,The level of expressed mRNA in the presence of chemical substance/absence: YOR022C,gene YOR022C,1.7
same,The level of expressed mRNA in the presence of chemical substance/absence: YOR087W,gene YOR087W,1.3
same,The level of expressed mRNA in the presence of chemical substance/absence: YOR088W,gene YOR088W,0.8
same,level of expressed mRNA in the presence of chemical substance/in its absence,gene YOR099W,1.2
same,level of expressed mRNA in the presence of chemical substance/in its absence,gene YOR130C,0.6
same,level of expressed mRNA in the presence of chemical substance/in its absence,gene YOR136W,1.4
same,The level of expressed mRNA in the presence of chemical substance/absence: YOR138C,gene YOR138C,0.7
same,The level of expressed mRNA in the presence of chemical substance/absence: YOR155C,gene YOR155C,1.6
